biological target: T1, EP4 (Homo sapiens, UniProt P35408); test: Prostanoid receptor binding assay (radioligand displacement binding assay); conditions: column marked X when IC50 < 1; read-out: IC50 (nm) X < 1
T1 construct: expressed in transfected cells; membranes prepared by differential centrifugation
Procedure: Prostanoid receptor cDNAs corresponding to full length coding sequences are subcloned into the appropriate sites of mammalian expression vectors and transfected into HEK 293(ebna) cells. HEK 293(ebna) cells expressing the individual cDNAs are grown under selection and individual colonies are isolated after 2-3 weeks of growth using the cloning ring method and subsequently expanded into clonal cell lines.
Transfected HEK 293(ebna) cells are maintained in culture, harvested and membranes are prepared by differential centrifugation, following lysis of the cells in the presence of protease inhibitors, for use in receptor binding assays. Prostanoid receptor binding assays (for DP1, DP2 (CRTH2), EP1, EP2, EP3-III, EP4, FP, IP, and TP) are performed in 10 mM MES/KOH (pH 6.0) (EPs, FP and TP) or 10 mM HEPES/KOH (pH 7.4) (DPs and IP), containing 1 mM EDTA, 2.5-30 mM divalent cation and the appropriate radio-ligand. Synthetic compounds are added in DMSO which is kept constant at 1% (v/v) in all incubations. The reaction is initiated by addition of membrane protein. Non-specific binding is determined in the presence of 10 μM of the corresponding non-radioactive prostanoid. Incubations are conducted for 60-120 min at room temperature or 30° C. and terminated by rapid filtration. Specific binding is calculated by subtracting non specific binding from total binding. The residual specific binding at each ligand concentration is calculated and expressed as a function of ligand concentration in order to construct sigmoidal concentration-response curves. The binding affinity of the compounds is determined by calculating the equilibrium inhibition constant (Ki) from the equation Ki=InPt/1+[radio-ligand]/Kd where Kd is the equilibrium dissociation constant for the radio-ligand:receptor interaction and InPt is the inflection point of the dose-response curves.
Abramovitz, M. et al., Biochem, Biophys. Acta, 2000, 1483, pp. 285.

T1 sequence (P35408 whole entry): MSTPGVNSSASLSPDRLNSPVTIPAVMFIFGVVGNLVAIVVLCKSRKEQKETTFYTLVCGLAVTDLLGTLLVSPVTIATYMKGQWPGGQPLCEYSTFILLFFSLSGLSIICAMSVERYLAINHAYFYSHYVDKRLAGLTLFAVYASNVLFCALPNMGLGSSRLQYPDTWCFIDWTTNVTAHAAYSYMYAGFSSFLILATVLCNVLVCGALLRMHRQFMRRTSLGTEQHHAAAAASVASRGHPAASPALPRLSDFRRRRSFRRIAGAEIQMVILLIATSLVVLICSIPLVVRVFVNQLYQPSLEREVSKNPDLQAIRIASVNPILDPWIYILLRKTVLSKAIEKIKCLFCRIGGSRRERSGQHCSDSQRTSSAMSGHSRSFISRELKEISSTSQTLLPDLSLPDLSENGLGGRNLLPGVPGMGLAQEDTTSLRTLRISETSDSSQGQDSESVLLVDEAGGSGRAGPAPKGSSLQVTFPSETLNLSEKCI

SMILES	IC50 [nM]
CN1CCc2c(n(-c3ccc(CCNC(=O)NS(=O)(=O)c4ccc(Cl)cc4)cc3)c3ccc(S(C)(=O)=O)cc23)C1=O [Example 1-31, 4-chloro-N-{[(2-{4-[2-methyl-6-(methylsulfonyl)-1-oxo-1,2,3,4-tetrahydro-9H-beta-carbolin-9-yl]phenyl}ethyl)amino]carbonyl}benzenesulfonamide]	< 1
CN1CCc2c(n(-c3ccc(CC4(NC(=O)NS(=O)(=O)c5ccc(Cl)cc5)CC4)cc3)c3ccc(S(C)(=O)=O)cc23)C1=O [Example 1-34, 4-chloro-N-{[(1-{4-[2-methyl-6-(methylsulfonyl)-1-oxo-1,2,3,4-tetrahydro-9H-beta-carbolin-9-yl]benzyl}cyclopropyl)amino]carbonyl}benzenesulfonamide]	< 1
CN1CCc2c(n(-c3ccc(CCNC(=O)NS(=O)(=O)c4ccc(Cl)cc4)cc3)c3ccc(-c4ccc(S(C)(=O)=O)cc4)cc23)C1=O [Example 1-35, 4-chloro-N-({[2-(4-{2-methyl-6-[4-(methylsulfonyl)phenyl]-1-oxo-1,2,3,4-tetrahydro-9H-beta-carbolin-9-yl}phenyl)ethyl]amino}carbonyl)benzenesulfonamide]	< 1
CN1CCc2c(n(-c3ccc(CCNC(=O)NS(=O)(=O)c4ccc(Cl)cc4)cc3)c3ccc(-c4cccc(S(C)(=O)=O)c4)cc23)C1=O [Example 1-36, 4-chloro-N-({[2-(4-{2-methyl-6-[3-(methylsulfonyl)phenyl]-1-oxo-1,2,3,4-tetrahydro-9H-beta-carbolin-9-yl}phenyl)ethyl]amino}carbonyl)benzenesulfonamide]	< 1
CN1CCc2c(n(-c3ccc(CC4(NC(=O)NS(=O)(=O)c5ccc(Cl)cc5)CC4)cc3)c3ccc(S(=O)(=O)c4ccccc4)cc23)C1=O [Example 1-37, 4-chloro-N-{[(1-{4-[2-methyl-1-oxo-6-(phenylsulfonyl)-1,2,3,4-tetrahydro-9H-beta-carbolin-9-yl]benzyl}cyclopropyl)amino]carbonyl}benzenesulfonamide]	< 1
CN1CCc2c(n(-c3ccc(CC4(NC(=O)NS(=O)(=O)c5ccc(Cl)cc5)CC4)cc3)c3ccc(C4CC4)cc23)C1=O [Example 2-1, 4-chloro-N-[({1-[4-(6-cyclopropyl-2-methyl-1-oxo-1,2,3,4-tetrahydro-9H-beta-carbolin-9-yl)benzyl]cyclopropyl}amino)carbonyl]benzenesulfonamide]	< 1
CN1CCc2c(n(-c3ccc(CCNC(=O)NS(=O)(=O)c4ccc(Cl)cc4)cc3)c3ccc(C4CC4)cc23)C1=O [Example 2-2, 4-chloro-N-[({2-[4-(6-cyclopropyl-2-methyl-1-oxo-1,2,3,4-tetrahydro-9H-beta-carbolin-9-yl)phenyl]ethyl}amino)carbonyl]benzenesulfonamide]	< 1
CN1CCc2c(n(-c3ccc(CCNC(=O)NS(=O)(=O)c4ccc(Cl)cc4)cc3)c3cccc(C4CC4)c23)C1=O [Example 2-3, 4-chloro-N-[({2-[4-(5-cyclopropyl-2-methyl-1-oxo-1,2,3,4-tetrahydro-9H-beta-carbolin-9-yl)phenyl]ethyl}amino)carbonyl]benzenesulfonamide]	< 1
CN1CCc2c(n(-c3ccc(CCNC(=O)NS(=O)(=O)c4ccc(Cl)cc4)cc3)c3cc(C4CC4)ccc23)C1=O [Example 2-4, 4-chloro-N-[({2-[4-(7-cyclopropyl-2-methyl-1-oxo-1,2,3,4-tetrahydro-9H-beta-carbolin-9-yl)phenyl]ethyl}amino)carbonyl]benzenesulfonamide]	< 1
Cc1nnc(-c2ccc3c(c2)c2c(n3-c3ccc(CC4(NC(=O)NS(=O)(=O)c5ccc(Cl)cc5)CC4)cc3)C(=O)N(C)CC2)o1 [Example 3-1, sodium[(4-chlorophenyl)sulfonyl]{[(1-{4-[2-methyl-6-(5-methyl-1,3,4-oxadiazol-2-yl)-1-oxo-1,2,3,4-tetrahydro-9H-beta-carbolin-9-yl]benzyl}cyclopropyl)amino]carbonyl}azanide]	< 1
COC(=O)c1ccc2c(c1)c1c(n2-c2ccc(CC3(NC(=O)NS(=O)(=O)c4ccc(Cl)cc4)CC3)cc2)C(=O)N(C)CC1 [Example 3-2, methyl 9-[4-({1-[({[(4-chlorophenyl)sulfonyl]amino}carbonyl)amino]cyclopropyl}methyl)phenyl]-2-methyl-1-oxo-2,3,4,9-tetrahydro-1H-beta-carboline-6-carboxylate]	< 1
CN1CCc2c(n(-c3ccc(CC4(NC(=O)NS(=O)(=O)c5ccc(Cl)cc5)CC4)cc3)c3ccc(C(=O)O)cc23)C1=O [Example 3-3, 9-[4-({1-[({[(4-chlorophenyl)sulfonyl]amino}carbonyl)amino]cyclopropyl}methyl)phenyl]-2-methyl-1-oxo-2,3,4,9-tetrahydro-1H-beta-carboline-6-carboxylic acid]	< 1
CN1CCc2c(n(-c3ccc(CC4(NC(=O)NS(=O)(=O)c5ccc(Cl)cc5)CC4)cc3)c3ccc(-c4ccn[nH]4)cc23)C1=O [Example 3-4, 4-chloro-N-{[(1-{4-[2-methyl-1-oxo-6-(1H-pyrazol-5-yl)-1,2,3,4-tetrahydro-9H-beta-carbolin-9-yl]benzyl}cyclopropyl)amino]carbonyl}benzenesulfonamide]	< 1
CN1CCc2c(n(-c3ccc(CC4(NC(=O)NS(=O)(=O)c5ccc(Cl)cc5)CC4)cc3)c3ccc(-c4nnc(-c5ccccc5)o4)cc23)C1=O [Example 3-5, 4-chloro-N-{[(1-{4-[2-methyl-1-oxo-6-(5-phenyl-1,3,4-oxadiazol-2-yl)-1,2,3,4-tetrahydro-9H-beta-carbolin-9-yl]benzyl}cyclopropyl)amino]carbonyl}benzenesulfonamide]	< 1

same assay, conditions: column marked X when IC50 > 5; read-out: IC50 (nm) X > 5

SMILES	IC50 [nM]
CN1CCc2c(n(-c3ccc(CCNC(=O)NS(=O)(=O)c4ccc(Cl)cc4)cc3)c3cccc(S(C)(=O)=O)c23)C1=O [Example 1-33, 4-chloro-N-{[(2-{4-[2-methyl-5-(methylsulfonyl)-1-oxo-1,2,3,4-tetrahydro-9H-beta-carbolin-9-yl]phenyl}ethyl)amino]carbonyl}benzenesulfonamide]	> 5

same assay, conditions: column marked X when IC50 between 1 and 5; read-out: IC50 (nm) 1 < X < 5

SMILES	IC50 [nM]
CN1CCc2c(n(-c3ccc(CCNC(=O)NS(=O)(=O)c4ccc(Cl)cc4)cc3)c3cc(S(C)(=O)=O)ccc23)C1=O [Example 1-32, 4-chloro-N-{[(2-{4-[2-methyl-7-(methylsulfonyl)-1-oxo-1,2,3,4-tetrahydro-9H-beta-carbolin-9-yl]phenyl}ethyl)amino]carbonyl}benzenesulfonamide]	1 to 5

same assay, conditions: radioligand displacement binding assay; read-out: IC50

SMILES	IC50 [nM]
CN1CCc2c(n(-c3ccc(CCNC(=O)NS(=O)(=O)c4ccc(Cl)cc4)cc3)c3cc(S(C)(=O)=O)ccc23)C1=O [Example 1-32, 4-chloro-N-{[(2-{4-[2-methyl-7-(methylsulfonyl)-1-oxo-1,2,3,4-tetrahydro-9H-beta-carbolin-9-yl]phenyl}ethyl)amino]carbonyl}benzenesulfonamide]	1 to 5
CN1CCc2c(n(-c3ccc(CCNC(=O)NS(=O)(=O)c4ccc(Cl)cc4)cc3)c3cccc(S(C)(=O)=O)c23)C1=O [Example 1-33, 4-chloro-N-{[(2-{4-[2-methyl-5-(methylsulfonyl)-1-oxo-1,2,3,4-tetrahydro-9H-beta-carbolin-9-yl]phenyl}ethyl)amino]carbonyl}benzenesulfonamide]	> 5
